Where no end group is shown, it is not given here. FAM = 5-carboxyfluorescein (5-FAM), fluorescent label attached at the amino terminus
What was measured:
[1] = test system: hepatocytes isolated from ob/ob mice; type: cell-based, mouse; settings: for specificity of intracellular transport: distribution versus pattern of mitotracker: Ob/Ob hepatocytes, 18 hours, 1 microM FAM peptide, 1 microM Mitotracker, 25 mM glucose
Method: GLP-1(28-36)amide (FIAWLVKGRamide (SEQ ID NO:1) and the GLP-1(28-37) Arg-34 glycine extended (FIAWLVRGRG (SEQ ID NO:4)) peptides were prepared by solid phase synthesis and purified by sequential HPLC to >98% single component homogeneity. Verification of the peptides was done by both amino acid composition analysis and by mass spectroscopy. Fluorescent-labeled GLP-1(28-36)amide was prepared with the green fluorescence compound, 5-carboxyfluorescein (5-FAM, fluorescein amidite) and added to hepatocytes isolated from the liver of an ob/ob mouse along with Mitotracker, a specific red fluorochrome mitochondrial marker from Molecular Probes (AnaSpec, Fremont Calif.). The mitotracker compound used requires oxidation to develop fluorescence emission and fluoresces only if cells are viable and actively respiring. The oxidized red fluorochrome stains mitochondria of live and poorly respiring cells (RedCMXRos #7512) and the reduced red fluorochrome stains only actively respiring cells (Red CM-H2XRos #7513).
Mitochondrial localization was evaluated as follows, Hepatocytes were isolated from ob/ob mice and diet-induced obese (DIO) mice and plated overnight on 4 well glass slides (NUNC, Inc., IL) in maintenance medium (12), Next day cells were treated with 10 microM PAM-labeled GLP-1 (28-36)amide peptide (FAM-FIAWLVKGRamide (SEQ ID NO:1)) and 50 nM MitoTracker Red CM-H2Ros for 5 minutes in no dye, no PBS, 5 mM Glucose DMEM medium. Cells were washed with the same medium and images were taken 15 minutes later using Nikon Diaphot 300 inverted microscope SPOT RT camera and SPOT 3.3.1 software (Diagnostic Instruments, Inc., MI).
Whether intracellular transport of FAM-GLP-1(28-36)amide is specific for […] was evaluated in hepatocytes isolated from Ob/Ob mice and treated for 18 hours with 1 microM Mitotracker Red CM-H2XRos and 1 microM of TAM labeled GLP-1 (28-36) peptide or irrelevant peptide controls: synapsin I-derived petide (FAM-LRRRISDANFamide (SEQ NO:13)), AnaSpec Cat #61756; IP3R-derived peptide (FAM-GRRESLTSFGamide (SEQ ID NO:14)), AnaSpec cat. #61731; or angiotensin I peptide (FAM-DRVYIHPFHL (SEQ ID NO:15)), AnaSpec cat. #61185, in 25 mM glucose maintenance medium. Irrelevant peptides were obtained from AnaSpec, Fremont, Calif. Celts were washed with 25 mM glucose Krebs-Ringer buffer. Images were taken using Nikon Diaphot 300 inverted microscope SPOT RT camera and SPOT 3.3.1 software (Diagnostic Instruments, Inc., MI).

[2] = test system: isolated mouse hepatocytes
[3] = mouse, in vivo
[4] = mouse, in vivo; remark: listed apart in the source

In the case of “FAM-DRVYIHPFHL ({FAM}-DRVYIHPFHL) [angiotensin I peptide, irrelevant peptide control, AnaSpec cat. #61185]”, the “specificity of intracellular transport: distribution versus pattern of mitotracker” value [1] is reported as “do not distribute in hepatocytes with the pattern of distribution of mitotracker”.
With “FAM-FIAWLVKGRamide ({FAM}-FIAWLVKGR-NH2; UniProt P01275 119-127, looked up, fragment) [FAM-GLP-1(28-36)amide, GLP-1(28-36)amide labeled at the amino-terminus with 5-carboxyfluorescein (FAM)]” the “specificity of intracellular transport: distribution versus pattern of mitotracker” value [1] was “appears to be specific for GLP-1(28-36)amide”.
For FAM-GLP-1: fluorescence-labeled GLP-1, the “binding to the surface of isolated mouse hepatocytes” value [2] was “no binding”.
In the case of “FAM-GRRESLTSFGamide ({FAM}-GRRESLTSFG-NH2) [IP3R-derived peptide, irrelevant peptide control, AnaSpec cat. #61731]”, the “specificity of intracellular transport: distribution versus pattern of mitotracker” value [1] is reported as “do not distribute in hepatocytes with the pattern of distribution of mitotracker”.
With “FAM-LRRRISDANFamide [synapsin I-derived petide]” the “specificity of intracellular transport: distribution versus pattern of mitotracker” value [1] was “do not distribute in hepatocytes with the pattern of distribution of mitotracker”.
For “FAM-glucagon: FAM-labeled control hormone known to have receptors on hepatocytes”, the “binding to the surface of isolated mouse hepatocytes” value [2] was “readily binds to the surface of hepatocytes”.
For “FIAWLVKGR-NH2 [GLP-1(28-36)amide, FIAWLVKGRamide]”, the “time to enter stressed hepatocytes” value [1] was ≤ 15 min, the “mechanism of transport into hepatocytes” value (GLP-1 receptor) was “occurs by GLP-1 receptor-independent mechanisms” and the “activities of the mice” value [3] was “no observable change in the activities”. For the same substance, the “MCR of the peptide” value [4] was 40 to 50 mL/min.

Source: patent publication US9040481B2, “Methods for treating steatotic disease” (The General Hospital Corporation, priority 2010, dated 2015)
